In patent publication EP4361137A1, “PRUNE1 INHIBITORS AND THERAPEUTIC USE THEREOF” (CEINGE Biotecnologie Avanzate Franco Salvatore s.c. a r.l., priority 2022, dated 2024):

Key:
D425-MED cells = assay: Real-time cell proliferation assay (cell index, xCELLigence); assay type: cell-based, human; settings: D425-Med cells
Protocol: J774A.1 murine macrophages (referred to as J774 cells; ATCC: #TIB-67), MMTV-Prune1-Wnt1 cells were grown in high-glucose Dulbecco's modified Eagle's medium (DMEM; Euroclone) supplemented with 20% (v/v) FBS, 2 mM L-glutamine, and 1% (v/v) antibiotics (Pen/Strep). D425-MED, D425-MED-Luc and […] cells were grown in high-glucose Dulbecco's modified Eagle's medium (DMEM; Euroclone) and Iscove's Modified Dulbecco's Medium (IMDM; Sigma) at 1:1 (v/v) dilution supplemented with 20% (v/v) FBS, 2 mM L-glutamine, 1% non-essential amino acid solution (M7145; Sigma-Aldrich/Merck), and 1% (v/v) antibiotics (Pen/Strep). The cells were grown at 37 °C in a humidified atmosphere of 95% air, 5% CO2 (v/v).
D425.MED and MMTV-Prune1/Wnt1 cells were plated and treated with increasing concentrations of LEO-AA7.5(S)T for 24 hours. Water-treated cells were used as negative control for the experiments.
Cellular proliferation rates were determined with the xCELLigence system (Roche). D425-MED, MATH-Prune1/TP53-/- and MMTV-Prune1/Wnt1 cells (8 × 10^3) were treated with increasing concentrations of LEO-AA7.5(S)T, harvested, and then added to a single well of an xCELLigence E-plate 16. The proliferation rates were determined at 2-min intervals by measuring the impedance changes across the electrodes at the bottoms of the wells. These cell index values were calculated by the xCELLigence RTCA software. with vehicle-treated cells were the negative control. Impedance was measured every 2 min over 24 hours. The IC50 values were calculated through nonlinear regression analysis performed with Graph Pad Prism 9 ([inhibitor] vs. response (three parameters). Data are means ± SD of three independent experiments.

D425-MED-Luc = assay: Orthotopic xenograft of D425-MED-Luc cells in nude mice; assay type: in vivo; settings: 6 mg/kg/day intraperitoneally; for toxicity by total body weight, treated vs control mice / intracranial tumor growth (bioluminescence, photon emission) / PRUNE1 levels in cerebellar tumours (immunoblotting): HCl salt; for intracranial tumor growth (bioluminescence, photon emission): T21, after 14 days of treatment; for PRUNE1 levels in cerebellar tumours (immunoblotting): n.3 treated vs n.3 vehicle mice
Protocol: Starting after seven days from tumour implantation (i.e., once the tumours were established) the mice (grouped according to their bioluminescence values) were injected intraperitoneally with LEO-AA7.5(S)T at 6 mg/kg/day, or with water as the vehicle for the control group. After n.28 days from tumour implantation (i.e., after three weeks of AA7.5 treatment), the mice were sacrificed, and the organs were collected.
D425-MED-luc [Ferrucci et al., 2018] were implanted into the right cerebellar hemisphere of female (n.14) athymic nude mice (5 weeks old), as previously described [Asadzadeh et al., 2018], to establish orthotopic intracerebellar D425-MED-Luc xenograft models. Nude mice were anaesthetised with Ketamine/ Xylazine (87.5 mg/kg, 12.5 mg/kg, respectively). The mice were then placed in a stereotactic frame by hooking their incisors onto the frame hold. A small skin incision (length, 1 mm) and a burr hole (diameter, 0.7 mm) were created using a microsurgical drill (Fine Science Tools, Foster City, CA, USA). D425-MED-Luc cells (1 ×10^5)were resuspended in 10 µL PBS and injected slowly through the burr hole into the right cerebellar hemisphere (stereotactic coordinates from Bregma: anteroposterior, 5.5 mm; right lateral, 2.1 mm; dorsoventral 5.0 mm), with a steady force over 30 s, using a 10-AL, 26-gauge Hamilton Gastight model 1701RN syringe needle (SigmaAldrich) that was inserted perpendicular to the cranial surface. The incision was sutured using Safil polyglycolic acid synthetic absorbable suture (6/0). The mice were kept on a warming blanket after the surgery, to help them to maintain their body temperature. Their mobility and respiratory patterns were observed continuously, and once the mice had recovered from the anaesthesia; they were place in a sterile housing cage. The mice were monitored daily for development of potential neurological deficits. Seven days after the implantation of the cells, the mice were imaged, and tumour growth was evaluated by bioluminescence acquisition using an imaging system (IVIS 3D Illumina; Xenogen/ Caliper). For the acquisitions, the mice were anaesthetised by inhalational of isoflurane, and the D-luciferin (122799; PerkinElmer) (15 mg/mL stock) was injected intraperitoneally (100 µL per 10 g body weight). At 5 min from the luciferin injection, the mice were imaged for 3 min. To quantify the bioluminescence, the integrated fluxes of photons (p/s) within each area of interest were determined using the Living Images Software Package 3.2 (Xenogen-Perkin Elmer). For LEO-AA7.5(S)T in-vivo treatment, starting after seven days from tumour implantation (i.e., once the tumours were established) the mice (grouped according to their bioluminescence values) were injected intraperitoneally with LEO-AA7.5(S)T at 6 mg/kg/day, or with water as the vehicle for the control group. After 28 days from tumour implantation (i.e., after three weeks of AA7.5 treatment), the mice were sacrificed, and the organs were collected.

Acute toxicity in vivo = assay: Acute toxicity in vivo; design: species or system FVB mice; settings: for hepatotoxicity or nephrotoxicity (glutamate-pyruvate transaminase 1, creatinine blood levels, blood urea nitrogen): HCl salt
Protocol: The toxicity of LEO-AA7.5(S)T was determined with 4-week-old FVB mice grouped according to body weight. Escalating doses of LEO-AA7.5(S)T (60mg or 120mg/kg/day) or vehicle (water) were administered intraperitoneally, daily for 12 days. At sacrifice, the blood and organs were collected and evaluated. Haematological and biochemical markers of hepatic and renal functions were evaluated. Data are expressed as means from four mice within each treatment group.

[1] = listed as (S)-(1-(4-((4-methoxybenzyl)amino)-1,3,5-triazin-2-yl)piperidin-3-yl)methanol HC
[2] = 60 and 120 mg/kg intraperitoneally, daily for 12 days

In the case of `COc1ccc(CNc2ncnc(N3CCC[C@H](CO)C3)n2)cc1.Cl` [LEO-AA7.5(S)T, (S)-(1-(4-((4-methoxybenzyl)amino)-1,3,5-triazin-2-yl)piperidin-3-yl)methanol HCl salt], the “cell proliferation rate, combination with Vincristine” value (D425-MED cells; 10 µM added to 10 nM or 1 nM Vincristine) is reported as “reduces the cell proliferation rate”, the “inhibition of cell proliferation, combination with Seclidemstat [SP-2577]” value (D425-MED cells; 10 µM plus 22.5 µM Seclidemstat) is reported as “enhance the inhibition of cell proliferation” and the “half maximal inhibitory concentration (IC50) for the inhibition of cell proliferation index” value (D425-MED cells; impedance every 2 min over 24 h) is reported as 71 µM. The “EMT in cerebellar tumours (N-cadherin loss, increased E-cadherin)” value (D425-MED-Luc) was “inhibition of EMT”, the “activated PTEN in cerebellar tumours (immunoblotting)” value (D425-MED-Luc) was “overexpression” and the “nuclear phosphorylated SMAD2/3 and OTX2 in cerebellar tumours (immunoblotting)” value (D425-MED-Luc) was “inhibition”. For the same compound, the “toxicity by total body weight, treated vs control mice” value (D425-MED-Luc) was “No significant differences”, the “intracranial tumor growth (bioluminescence, photon emission)” value (D425-MED-Luc) was “impairment of tumour growth” and the “intracranial tumor growth (bioluminescence, photon emission)” value (D425-MED-Luc; [1]) was “significantly decreased”. For the same compound, the “treated mice showing metastases in the spinal cord” value (D425-MED-Luc; control mice 7 out of 7) was “two out of seven”, the “toxicity by total body weight, treated vs control mice” value (D425-MED-Luc; [1]) was “no decrease in total body weight” and the “PRUNE1 levels in cerebellar tumours (immunoblotting)” value (D425-MED-Luc) was “downregulation of Prune1”. The “PRUNE1 levels in cerebellar tumours (immunoblotting)” value (D425-MED-Luc; [1]) was “reduced PRUNE1 levels”, the “liver, spleen and kidney weight, treated vs controls” value (Acute toxicity in vivo; 60mg or 120mg/kg/day intraperitoneally for 12 days) was “no decrease” and the “haematological parameters (e.g. white blood cell count)” value (Acute toxicity in vivo; [2]) was “no significant variations”. The immediate toxicity effects (Acute toxicity in vivo; [2]) was “no immediate toxicity effects”, the “hepatotoxicity or nephrotoxicity (glutamate-pyruvate transaminase 1, creatinine blood levels, blood urea nitrogen)” value (Acute toxicity in vivo; [2]) was “absence of drug-induced hepatotoxicity and renal failure” and the “hepatotoxicity or nephrotoxicity (glutamate-pyruvate transaminase 1, creatinine blood levels, blood urea nitrogen)” value (Acute toxicity in vivo; 60 and 120 mg/kg intraperitoneally, daily for 12 days, listed as (S)-(1-(4-((4-methoxybenzyl)amino)-1,3,5-triazin-2-yl)piperidin-3-yl)methanol HC) was “no signs of hepatotoxicity or nephrotoxicity”.
